Reference: US20030224416A1, “Schizophrenia related gene” (priority 2002, published 2003)

Test system: Kv3.1 α-subunit mRNA
Assay: Experiment 1: in situ hybridization of Kv3.1 α-subunit mRNA in brain, chronic PCP rat model of schizophrenia with antipsychotic co-treatment
Assay type: in vivo

## CN1CCN(C2=Nc3ccc(F)cc3Nc3sc4ccccc4c32)CC1.O=C(O)/C=C\C(=O)O [Y-931, 8-fluoro-12-(4-methylpiperazin-1-yl)-6H-[l]benzothieno[2,3-b][1,5]benzo-diazepine monomaleate]
ACg, PCP + drug 0.3 mg/kg/day
  Kv3.1 α-subunit mRNA expression: 15.36 ± 0.29 PSL/mm^2
ACg, PCP + drug 1 mg/kg/day
  Kv3.1 α-subunit mRNA expression: 15.10 ± 0.92 PSL/mm^2
ACg, PCP + drug 3 mg/kg/day
  Kv3.1 α-subunit mRNA expression: 15.40 ± 0.83 PSL/mm^2
ACg, PCP + drug 10 mg/kg/day
  Kv3.1 α-subunit mRNA expression: 14.82 ± 0.74 PSL/mm^2
AcbC, PCP + drug 0.3 mg/kg/day
  Kv3.1 α-subunit mRNA expression: 7.65 ± 0.40 PSL/mm^2
AcbC, PCP + drug 1 mg/kg/day
  Kv3.1 α-subunit mRNA expression: 8.40 ± 0.63 PSL/mm^2
AcbC, PCP + drug 3 mg/kg/day
  Kv3.1 α-subunit mRNA expression: 8.44 ± 0.43 PSL/mm^2
AcbC, PCP + drug 10 mg/kg/day
  Kv3.1 α-subunit mRNA expression: 8.42 ± 0.53 PSL/mm^2
AcbS, PCP + drug 0.3 mg/kg/day
  Kv3.1 α-subunit mRNA expression: 10.24 ± 0.64 PSL/mm^2
AcbS, PCP + drug 1 mg/kg/day
  Kv3.1 α-subunit mRNA expression: 11.55 ± 0.50 PSL/mm^2
AcbS, PCP + drug 3 mg/kg/day
  Kv3.1 α-subunit mRNA expression: 11.11 ± 0.27 PSL/mm^2
AcbS, PCP + drug 10 mg/kg/day
  Kv3.1 α-subunit mRNA expression: 11.26 ± 0.67 PSL/mm^2
Au1, PCP + drug 0.3 mg/kg/day
  Kv3.1 α-subunit mRNA expression: 17.02 ± 1.26 PSL/mm^2
Au1, PCP + drug 1 mg/kg/day
  Kv3.1 α-subunit mRNA expression: 18.48 ± 1.36 PSL/mm^2
Au1, PCP + drug 3 mg/kg/day
  Kv3.1 α-subunit mRNA expression: 16.76 ± 0.32 PSL/mm^2
Au1, PCP + drug 10 mg/kg/day
  Kv3.1 α-subunit mRNA expression: 17.98 ± 0.68 PSL/mm^2
CA1pd, PCP + drug 0.3 mg/kg/day
  Kv3.1 α-subunit mRNA expression: 16.80 ± 1.23 PSL/mm^2
CA1pd, PCP + drug 1 mg/kg/day
  Kv3.1 α-subunit mRNA expression: 18.34 ± 0.91 PSL/mm^2
CA1pd, PCP + drug 3 mg/kg/day
  Kv3.1 α-subunit mRNA expression: 16.47 ± 0.98 PSL/mm^2
CA1pd, PCP + drug 10 mg/kg/day
  Kv3.1 α-subunit mRNA expression: 19.18 ± 2.03 PSL/mm^2
CA2pd, PCP + drug 0.3 mg/kg/day
  Kv3.1 α-subunit mRNA expression: 24.07 ± 1.74 PSL/mm^2
CA2pd, PCP + drug 1 mg/kg/day
  Kv3.1 α-subunit mRNA expression: 20.07 ± 1.71 PSL/mm^2
CA2pd, PCP + drug 3 mg/kg/day
  Kv3.1 α-subunit mRNA expression: 21.47 ± 2.23 PSL/mm^2
CA2pd, PCP + drug 10 mg/kg/day
  Kv3.1 α-subunit mRNA expression: 22.31 ± 1.57 PSL/mm^2
CA3pd, PCP + drug 0.3 mg/kg/day
  Kv3.1 α-subunit mRNA expression: 34.10 ± 1.52 PSL/mm^2
CA3pd, PCP + drug 1 mg/kg/day
  Kv3.1 α-subunit mRNA expression: 33.99 ± 3.29 PSL/mm^2
CA3pd, PCP + drug 3 mg/kg/day
  Kv3.1 α-subunit mRNA expression: 34.72 ± 1.24 PSL/mm^2
CA3pd, PCP + drug 10 mg/kg/day
  Kv3.1 α-subunit mRNA expression: 33.90 ± 2.52 PSL/mm^2
DGgd, PCP + drug 0.3 mg/kg/day
  Kv3.1 α-subunit mRNA expression: 38.38 ± 1.53 PSL/mm^2
DGgd, PCP + drug 1 mg/kg/day
  Kv3.1 α-subunit mRNA expression: 39.21 ± 1.75 PSL/mm^2
DGgd, PCP + drug 3 mg/kg/day
  Kv3.1 α-subunit mRNA expression: 36.93 ± 2.53 PSL/mm^2
DGgd, PCP + drug 10 mg/kg/day
  Kv3.1 α-subunit mRNA expression: 36.11 ± 2.06 PSL/mm^2
DLStr, PCP + drug 0.3 mg/kg/day
  Kv3.1 α-subunit mRNA expression: 6.55 ± 0.53 PSL/mm^2
DLStr, PCP + drug 1 mg/kg/day
  Kv3.1 α-subunit mRNA expression: 5.99 ± 0.96 PSL/mm^2
DLStr, PCP + drug 3 mg/kg/day
  Kv3.1 α-subunit mRNA expression: 7.13 ± 0.70 PSL/mm^2
DLStr, PCP + drug 10 mg/kg/day
  Kv3.1 α-subunit mRNA expression: 7.46 ± 0.86 PSL/mm^2
IL, PCP + drug 0.3 mg/kg/day
  Kv3.1 α-subunit mRNA expression: 11.64 ± 0.40 PSL/mm^2
IL, PCP + drug 1 mg/kg/day
  Kv3.1 α-subunit mRNA expression: 11.33 ± 0.60 PSL/mm^2
IL, PCP + drug 3 mg/kg/day
  Kv3.1 α-subunit mRNA expression: 12.91 ± 0.38 PSL/mm^2
IL, PCP + drug 10 mg/kg/day
  Kv3.1 α-subunit mRNA expression: 11.55 ± 0.45 PSL/mm^2
IO, PCP + drug 0.3 mg/kg/day
  Kv3.1 α-subunit mRNA expression: 17.52 ± 0.95 PSL/mm^2
IO, PCP + drug 1 mg/kg/day
  Kv3.1 α-subunit mRNA expression: 15.49 ± 0.30 PSL/mm^2
IO, PCP + drug 3 mg/kg/day
  Kv3.1 α-subunit mRNA expression: 17.52 ± 0.36 PSL/mm^2
IO, PCP + drug 10 mg/kg/day
  Kv3.1 α-subunit mRNA expression: 15.30 ± 0.62 PSL/mm^2
M1, PCP + drug 0.3 mg/kg/day
  Kv3.1 α-subunit mRNA expression: 15.33 ± 0.38 PSL/mm^2
M1, PCP + drug 1 mg/kg/day
  Kv3.1 α-subunit mRNA expression: 14.81 ± 0.80 PSL/mm^2
M1, PCP + drug 3 mg/kg/day
  Kv3.1 α-subunit mRNA expression: 17.01 ± 0.75 PSL/mm^2
M1, PCP + drug 10 mg/kg/day
  Kv3.1 α-subunit mRNA expression: 16.51 ± 0.67 PSL/mm^2
M2, PCP + drug 0.3 mg/kg/day
  Kv3.1 α-subunit mRNA expression: 13.23 ± 0.29 PSL/mm^2
M2, PCP + drug 1 mg/kg/day
  Kv3.1 α-subunit mRNA expression: 13.10 ± 0.57 PSL/mm^2
M2, PCP + drug 3 mg/kg/day
  Kv3.1 α-subunit mRNA expression: 14.25 ± 0.81 PSL/mm^2
M2, PCP + drug 10 mg/kg/day
  Kv3.1 α-subunit mRNA expression: 13.04 ± 0.53 PSL/mm^2
MG, PCP + drug 0.3 mg/kg/day
  Kv3.1 α-subunit mRNA expression: 26.82 ± 1.55 PSL/mm^2
MG, PCP + drug 1 mg/kg/day
  Kv3.1 α-subunit mRNA expression: 26.36 ± 0.95 PSL/mm^2
MG, PCP + drug 3 mg/kg/day
  Kv3.1 α-subunit mRNA expression: 26.75 ± 2.02 PSL/mm^2
MG, PCP + drug 10 mg/kg/day
  Kv3.1 α-subunit mRNA expression: 27.36 ± 1.86 PSL/mm^2
MM, PCP + drug 0.3 mg/kg/day
  Kv3.1 α-subunit mRNA expression: 25.02 ± 2.54 PSL/mm^2
MM, PCP + drug 1 mg/kg/day
  Kv3.1 α-subunit mRNA expression: 24.82 ± 0.93 PSL/mm^2
MM, PCP + drug 3 mg/kg/day
  Kv3.1 α-subunit mRNA expression: 20.92 ± 0.93 PSL/mm^2
MM, PCP + drug 10 mg/kg/day
  Kv3.1 α-subunit mRNA expression: 28.12 ± 1.89 PSL/mm^2
Pir, PCP + drug 0.3 mg/kg/day
  Kv3.1 α-subunit mRNA expression: 38.95 ± 2.38 PSL/mm^2
Pir, PCP + drug 1 mg/kg/day
  Kv3.1 α-subunit mRNA expression: 43.16 ± 2.76 PSL/mm^2
Pir, PCP + drug 3 mg/kg/day
  Kv3.1 α-subunit mRNA expression: 38.15 ± 3.31 PSL/mm^2
Pir, PCP + drug 10 mg/kg/day
  Kv3.1 α-subunit mRNA expression: 41.69 ± 1.90 PSL/mm^2
PrL, PCP + drug 0.3 mg/kg/day
  Kv3.1 α-subunit mRNA expression: 12.76 PSL/mm^2
PrL, PCP + drug 1 mg/kg/day
  Kv3.1 α-subunit mRNA expression: 12.17 PSL/mm^2
PrL, PCP + drug 3 mg/kg/day
  Kv3.1 α-subunit mRNA expression: 12.93 PSL/mm^2
PrL, PCP + drug 10 mg/kg/day
  Kv3.1 α-subunit mRNA expression: 12.55 PSL/mm^2
PrL, all doses administered (0.3-10 mg/kg/day)
  effect on PCP-induced decrease in Kv3.1 α-subunit mRNA expression: significantly reversed the PCP-induced decrease back to control levels
RSa, PCP + drug 0.3 mg/kg/day
  Kv3.1 α-subunit mRNA expression: 19.22 ± 1.40 PSL/mm^2
RSa, PCP + drug 1 mg/kg/day
  Kv3.1 α-subunit mRNA expression: 18.90 ± 1.03 PSL/mm^2
RSa, PCP + drug 3 mg/kg/day
  Kv3.1 α-subunit mRNA expression: 17.36 ± 1.55 PSL/mm^2
RSa, PCP + drug 10 mg/kg/day
  Kv3.1 α-subunit mRNA expression: 18.04 ± 0.87 PSL/mm^2
RSg, PCP + drug 0.3 mg/kg/day
  Kv3.1 α-subunit mRNA expression: 20.89 ± 0.95 PSL/mm^2
RSg, PCP + drug 1 mg/kg/day
  Kv3.1 α-subunit mRNA expression: 19.99 ± 0.59 PSL/mm^2
RSg, PCP + drug 3 mg/kg/day
  Kv3.1 α-subunit mRNA expression: 20.73 ± 1.22 PSL/mm^2
RSg, PCP + drug 10 mg/kg/day
  Kv3.1 α-subunit mRNA expression: 19.48 ± 0.64 PSL/mm^2
SN, PCP + drug 0.3 mg/kg/day
  Kv3.1 α-subunit mRNA expression: 11.66 ± 0.91 PSL/mm^2
SN, PCP + drug 1 mg/kg/day
  Kv3.1 α-subunit mRNA expression: 12.98 ± 1.12 PSL/mm^2
SN, PCP + drug 3 mg/kg/day
  Kv3.1 α-subunit mRNA expression: 13.04 ± 1.29 PSL/mm^2
SN, PCP + drug 10 mg/kg/day
  Kv3.1 α-subunit mRNA expression: 15.34 ± 1.58 PSL/mm^2
VMStr, PCP + drug 0.3 mg/kg/day
  Kv3.1 α-subunit mRNA expression: 6.75 ± 0.50 PSL/mm^2
VMStr, PCP + drug 1 mg/kg/day
  Kv3.1 α-subunit mRNA expression: 7.18 ± 0.71 PSL/mm^2
VMStr, PCP + drug 3 mg/kg/day
  Kv3.1 α-subunit mRNA expression: 7.69 ± 0.35 PSL/mm^2
VMStr, PCP + drug 10 mg/kg/day
  Kv3.1 α-subunit mRNA expression: 7.23 ± 0.26 PSL/mm^2
VO, PCP + drug 0.3 mg/kg/day
  Kv3.1 α-subunit mRNA expression: 19.12 ± 0.74 PSL/mm^2
VO, PCP + drug 1 mg/kg/day
  Kv3.1 α-subunit mRNA expression: 17.81 ± 1.08 PSL/mm^2
VO, PCP + drug 3 mg/kg/day
  Kv3.1 α-subunit mRNA expression: 19.32 ± 0.63 PSL/mm^2
VO, PCP + drug 10 mg/kg/day
  Kv3.1 α-subunit mRNA expression: 18.51 ± 1.08 PSL/mm^2
Chronic co-administration with PCP
  effect on PCP-induced decreases in Kv3.1 α-subunit mRNA expression (summary): reversed
dRt and DLStr
  effect on PCP-induced decrease in Kv3.1 α-subunit mRNA expression: neither Y-931 nor olanzapine significantly modulated the PCP-induced effect
dRt, PCP + drug 0.3 mg/kg/day
  Kv3.1 α-subunit mRNA expression: 54.94 ± 1.99 PSL/mm^2
dRt, PCP + drug 1 mg/kg/day
  Kv3.1 α-subunit mRNA expression: 51.68 ± 2.34 PSL/mm^2
dRt, PCP + drug 3 mg/kg/day
  Kv3.1 α-subunit mRNA expression: 53.38 ± 2.99 PSL/mm^2
dRt, PCP + drug 10 mg/kg/day
  Kv3.1 α-subunit mRNA expression: 54.81 ± 1.90 PSL/mm^2
vRt, PCP + drug 0.3 mg/kg/day
  Kv3.1 α-subunit mRNA expression: 46.91 ± 2.73 PSL/mm^2
vRt, PCP + drug 1 mg/kg/day
  Kv3.1 α-subunit mRNA expression: 47.18 ± 2.10 PSL/mm^2
vRt, PCP + drug 3 mg/kg/day
  Kv3.1 α-subunit mRNA expression: 52.57 ± 2.00 PSL/mm^2
vRt, PCP + drug 10 mg/kg/day
  Kv3.1 α-subunit mRNA expression: 49.70 ± 2.76 PSL/mm^2
